Assays:
[1] = Pharmacokinetics in male Sprague Dawley rats, single subcutaneous administration; assay type: in vivo, Sprague Dawley rat; conditions: 100 nmol/kg single SC, mean n = 3 (example 3 n = 1); for CL/F / Tmax / half-life: rat, plasma
Procedure: The pharmacokinetics of select Examples are evaluated following a single subcutaneous (SC) administration of 100 nmol/kg to male Sprague Dawley rats. Blood samples are collected over 168 hours following SC administration. Pharmacokinetic parameters are calculated using individual plasma concentrations. A qualified LC/MS method that measures the intact mass of the Example is used to determine plasma (K3 EDTA) concentrations. Each peptide and an analog as an internal standard are extracted from 100% rat plasma using a protein precipitation method. Instruments are combined for LC/MS detection. Mean pharmacokinetic parameters for the Examples are shown in […]

insulin secretion = assay: In vivo effect on insulin secretion (ivGTT) in male Wistar rats; design: species or system Wistar rat
Procedure: Male Wistar rats with femoral artery and femoral vein canulas (Envigo, Indianapolis, IN) (280-320 grams) are single-housed in polycarbonate cages with filter tops. Rats maintained on a 12:12 h light-dark cycle (lights on at 6:00 A.M.) at 21° C. and receive food and deionized water ad libitum. Rats are randomized by body weight and dosed 1.5 mL/kg subcutaneously (s.c.) at doses of 0.3, 1.0, 3, 10, 30, and 100 nmol/kg 16 hours prior to glucose administration then fasted. Animals are weighed and anesthetized with sodium pentobarbital dosed intraperitoneally (i.p.) (65 mg/kg, 30 mg/mL). At time 0, a blood sample is collected into EDTA tubes after which glucose is administered intravenously (i.v.) ([…], 5 mL/kg). Blood samples are collected for glucose and insulin levels at 2, 4, 6, 10, 20 and 30 min post-intravenous administration of glucose. Plasma glucose levels are determined using a clinical chemistry analyzer. Plasma insulin is determined using an electrochemiluminescence assay (Meso Scale, Gaithersburg, MD). […] Results are presented (SEM)(N).

## CC[C@H](C)[C@H](NC(=O)[C@H](CO)NC(=O)[C@H](Cc1ccc(O)cc1)NC(=O)[C@H](CC(=O)O)NC(=O)[C@H](CO)NC(=O)[C@@H](NC(=O)[C@H](Cc1ccccc1)NC(=O)[C@@H](NC(=O)CNC(=O)[C@H](CCC(=O)O)NC(=O)[C@@H](C)NC(=O)[C@@H](N)Cc1ccc(O)cc1)[C@@H](C)O)[C@@H](C)CC)C(=O)N[C@@H](CC(C)C)C(=O)N[C@@H](CC(C)C)C(=O)N[C@@H](CC(=O)O)C(=O)N[C@@H](CCCCN)C(=O)N[C@@H](CCCCNC(=O)COCCOCCNC(=O)COCCOCCNC(=O)CC[C@H](NC(=O)CCCCCCCCCCCCCCCCCCC(=O)O)C(=O)O)C(=O)N[C@@H](C)C(=O)N[C@@H](CCC(N)=O)C(=O)NC(C)(C)C(=O)N[C@@H](CC(=O)O)C(=O)N[C@@H](Cc1ccccc1)C(=O)N[C@H](C(=O)N[C@@H](CC(N)=O)C(=O)N[C@@H](Cc1c[nH]c2ccccc12)C(=O)N[C@@H](CC(C)C)C(=O)N[C@@H](CC(C)C)C(=O)N[C@@H](C)C(=O)N[C@@H](CCC(N)=O)C(=O)NCC(=O)N1CCC[C@H]1C(=O)N[C@@H](CO)C(=O)N[C@@H](CO)C(=O)NCC(=O)N[C@@H](C)C(=O)N1CCC[C@H]1C(=O)N1CCC[C@H]1C(=O)N1CCC[C@H]1C(=O)N[C@@H](CO)C(N)=O)C(C)C [Example 1]
[1]
  AUCInf/Dose: 280 hr*kg*nmol/L/nmol
  Cmax/Dose: 3.62 kg*nmol/L/nmol
  CL/F: 3.57 mL/h/kg
  Tmax: 24 h
  half-life: 37.4 h

## CC[C@H](C)[C@H](NC(=O)[C@H](CO)NC(=O)[C@H](Cc1ccc(O)cc1)NC(=O)[C@H](CC(=O)O)NC(=O)[C@H](CO)NC(=O)[C@@H](NC(=O)[C@H](Cc1ccccc1)NC(=O)[C@@H](NC(=O)CNC(=O)[C@H](CCC(=O)O)NC(=O)[C@@H](C)NC(=O)[C@@H](N)Cc1ccc(O)cc1)[C@@H](C)O)[C@@H](C)CC)C(=O)N[C@@H](CC(C)C)C(=O)N[C@@H](CC(C)C)C(=O)N[C@@H](CC(=O)O)C(=O)N[C@@H](CCCCN)C(=O)N[C@@H](CCCCNC(=O)COCCOCCNC(=O)COCCOCCNC(=O)CC[C@H](NC(=O)CCCCCCCCCCCCCCCCC(=O)O)C(=O)O)C(=O)N[C@@H](C)C(=O)N[C@@H](CCC(N)=O)C(=O)NC(C)(C)C(=O)N[C@@H](CC(=O)O)C(=O)N[C@@H](Cc1ccccc1)C(=O)N[C@H](C(=O)N[C@@H](CC(N)=O)C(=O)N[C@@H](Cc1c[nH]c2ccccc12)C(=O)N[C@@H](CC(C)C)C(=O)N[C@@H](CC(C)C)C(=O)N[C@@H](C)C(=O)N[C@@H](CCC(N)=O)C(=O)NCC(=O)N1CCC[C@H]1C(=O)N[C@@H](CO)C(=O)N[C@@H](CO)C(=O)NCC(=O)N[C@@H](C)C(=O)N1CCC[C@H]1C(=O)N1CCC[C@H]1C(=O)N1CCC[C@H]1C(=O)N[C@@H](CO)C(N)=O)C(C)C [Example 2]
[1]
  AUCInf/Dose: 304 hr*kg*nmol/L/nmol
  Cmax/Dose: 5.47 kg*nmol/L/nmol
  CL/F: 3.3 mL/h/kg
  Tmax: 12 h
  half-life: 26.9 h

## CC[C@H](C)[C@H](NC(=O)[C@H](Cc1ccccc1)NC(=O)[C@@H](NC(=O)CNC(=O)[C@H](CCC(=O)O)NC(=O)C(C)(C)NC(=O)[C@@H](N)Cc1ccc(O)cc1)[C@@H](C)O)C(=O)N[C@@H](CO)C(=O)N[C@@H](CC(=O)O)C(=O)N[C@@H](Cc1ccc(O)cc1)C(=O)N[C@@H](CO)C(=O)N[C@H](C(=O)N[C@@](C)(CC(C)C)C(=O)N[C@@H](CC(C)C)C(=O)N[C@@H](CC(=O)O)C(=O)N[C@@H](CCCCN)C(=O)N[C@@H](CCCCNC(=O)COCCOCCNC(=O)COCCOCCNC(=O)CC[C@H](NC(=O)CCCCCCCCCCCCCCCCCCC(=O)O)C(=O)O)C(=O)N[C@@H](Cc1c[nH]cn1)C(=O)N[C@@H](CCC(N)=O)C(=O)NC(C)(C)C(=O)N[C@@H](CC(=O)O)C(=O)N[C@@H](Cc1ccccc1)C(=O)N[C@H](C(=O)N[C@@H](CCC(=O)O)C(=O)N[C@@H](Cc1ccncc1)C(=O)N[C@@H](CC(C)C)C(=O)N[C@@H](CC(C)C)C(=O)N[C@@H](CCC(=O)O)C(=O)N[C@@H](C)C(=O)NCC(=O)N1CCC[C@H]1C(=O)N[C@@H](CO)C(=O)N[C@@H](CO)C(=O)NCC(=O)N[C@@H](C)C(=O)N1CCC[C@H]1C(=O)N1CCC[C@H]1C(=O)N1CCC[C@H]1C(=O)N[C@@H](CO)C(N)=O)C(C)C)[C@@H](C)CC [Example 3]
[1]
  AUCInf/Dose: 130 hr*kg*nmol/L/nmol
  Cmax/Dose: 3.03 kg*nmol/L/nmol
  CL/F: 7.67 mL/h/kg
  Tmax: 12 h
  half-life: 24.9 h

## CC[C@H](C)[C@H](NC(=O)[C@H](CCCCN)NC(=O)[C@H](CC(=O)O)NC(=O)[C@H](CC(C)C)NC(=O)[C@](C)(CC(C)C)NC(=O)[C@@H](NC(=O)[C@H](CO)NC(=O)[C@H](Cc1ccc(O)cc1)NC(=O)[C@H](CC(=O)O)NC(=O)[C@H](CO)NC(=O)[C@@H](NC(=O)[C@H](Cc1ccccc1)NC(=O)[C@@H](NC(=O)CNC(=O)[C@H](CCC(=O)O)NC(=O)C(C)(C)NC(=O)[C@@H](N)Cc1ccc(O)cc1)[C@@H](C)O)[C@@H](C)CC)[C@@H](C)CC)C(=O)N[C@@H](Cc1c[nH]cn1)C(=O)N[C@@H](CCC(N)=O)C(=O)NC(C)(C)C(=O)N[C@@H](CC(=O)O)C(=O)N[C@@H](Cc1ccccc1)C(=O)N[C@H](C(=O)N[C@@H](CCC(=O)O)C(=O)N[C@@H](Cc1ccc(O)cc1)C(=O)N[C@@H](CCCCNC(=O)COCCOCCNC(=O)COCCOCCNC(=O)CC[C@H](NC(=O)CCCCCCCCCCCCCCCCCCC(=O)O)C(=O)O)C(=O)N[C@@H](CC(C)C)C(=O)N[C@@H](CCC(=O)O)C(=O)NCC(=O)NCC(=O)N1CCC[C@H]1C(=O)N[C@@H](CO)C(=O)N[C@@H](CO)C(=O)NCC(=O)N[C@@H](C)C(=O)N1CCC[C@H]1C(=O)N1CCC[C@H]1C(=O)N1CCC[C@H]1C(=O)N[C@@H](CO)C(N)=O)C(C)C [Example 5]
[1]
  AUCInf/Dose: 239 hr*kg*nmol/L/nmol
  Cmax/Dose: 4.61 kg*nmol/L/nmol
  CL/F: 4.2 mL/h/kg
  Tmax: 24 h
  half-life: 27.1 h
Insulin secretion; 0.3 nmol/kg s.c. 16 hours prior to glucose
  insulin secretion during intravenous glucose tolerance test: 36.2
Insulin secretion; 1.0 nmol/kg s.c. 16 hours prior to glucose
  insulin secretion during intravenous glucose tolerance test: 45.3
Insulin secretion; 3.0 nmol/kg s.c. 16 hours prior to glucose
  insulin secretion during intravenous glucose tolerance test: 80.6
Insulin secretion; 10 nmol/kg s.c. 16 hours prior to glucose
  insulin secretion during intravenous glucose tolerance test: 122.0
Insulin secretion; 30 nmol/kg s.c. 16 hours prior to glucose
  insulin secretion during intravenous glucose tolerance test: 144
Insulin secretion; 100 nmol/kg s.c. 16 hours prior to glucose
  insulin secretion during intravenous glucose tolerance test: 212.7
Insulin secretion; s.c., n = 1
  Insulin secretion (ivGTT) ED50: 18.4 (n = 1) nmol/kg

## CC[C@H](C)[C@H](NC(=O)[C@H](CCCN)NC(=O)[C@H](CC(=O)O)NC(=O)[C@H](CC(C)C)NC(=O)[C@](C)(CC(C)C)NC(=O)[C@@H](NC(=O)[C@H](CO)NC(=O)[C@H](Cc1ccc(O)cc1)NC(=O)[C@H](CC(=O)O)NC(=O)[C@H](CO)NC(=O)[C@@H](NC(=O)[C@H](Cc1ccccc1)NC(=O)[C@@H](NC(=O)CNC(=O)[C@H](CCC(=O)O)NC(=O)C(C)(C)NC(=O)[C@@H](N)Cc1ccc(O)cc1)[C@@H](C)O)[C@@H](C)CC)[C@@H](C)CC)C(=O)N[C@@H](Cc1c[nH]cn1)C(=O)N[C@@H](CCC(N)=O)C(=O)NC(C)(C)C(=O)N[C@@H](CC(=O)O)C(=O)N[C@@H](Cc1ccccc1)C(=O)N[C@H](C(=O)N[C@@H](CCC(=O)O)C(=O)N[C@@H](Cc1ccc(O)cc1)C(=O)N[C@@H](CCCCNC(=O)COCCOCCNC(=O)COCCOCCNC(=O)CC[C@H](NC(=O)CCCCCCCCCCCCCCCCCCC(=O)O)C(=O)O)C(=O)N[C@@H](CC(C)C)C(=O)N[C@@H](CCC(=O)O)C(=O)NCC(=O)NCC(=O)N1CCC[C@H]1C(=O)N[C@@H](CO)C(=O)N[C@@H](CO)C(=O)NCC(=O)N[C@@H](C)C(=O)N1CCC[C@H]1C(=O)N1CCC[C@H]1C(=O)N1CCC[C@H]1C(=O)N[C@@H](CO)C(N)=O)C(C)C [Example 6]
[1]
  AUCInf/Dose: 271 hr*kg*nmol/L/nmol
  Cmax/Dose: 4.07 kg*nmol/L/nmol
  CL/F: 3.69 mL/h/kg
  half-life: 34.8 h

From patent publication US12723063B2, “GIPR-agonist compounds” (Eli Lilly and Company, priority 2019, dated 2026)
